Test results from US12084445B2, “Broad-spectrum carbapenems” (VenatoRx Pharmaceuticals, Inc., priority 2018, dated 2024).
Where two headings read alike, the source gives them in different places.

Assays:
Format in all cases: cell-based
[1] = tested on: S. aureus ATCC 29213 (methicillin sensitive); assay: broth microdilution MIC assay, S. aureus ATCC 29213; conditions: Staphylococcus aureus, ATCC 29213 / MSSA
Protocol: (§1) To determine the ability of test compounds to potentiate the inhibition of the growth of bacterial strains, classic cell-based broth microdilution MIC assays were employed. MIC assays are performed according to CLSI methods except where otherwise noted (CLSI, 2011 and CLSI, 2009). The reference strains S. aureus ATCC 29213 (methicillin sensitive), S. aureus ATCC 33591 (methicillin-resistant), E. coli ATCC 25922 (wild-type/QC strain), P. aeruginosa ATCC 27853 (wild-type/QC strain), and the clinical isolate P. aeruginosa PA 8 were used to determine the ability of the exemplary carbapenem compounds to inhibit bacterial growth. An expanded panel of methicillin resistance S. aureus (MRSA) and Pseudomonas was also used to determine the ability of exemplary carbapenem compounds to inhibit bacterial growth across a broader representation of those species. To determine activity in MRSA and in addition to S. aureus ATCC 33591, S. aureus USA 300, USA 400 and USA 600, some of the most common clones found to cause human infection, were also used. To further gauge the impact on the carbapenem compounds due to various resistance mechanisms in Pseudomonas, the following strains were included: P. aeruginosa 35151 (hyper-permeable strain), P. aeruginosa AmexAB-OprM (an efflux pump knockout), and P. aeruginosa PA 3 (a clinical isolate of reduced carbapenem susceptibility). Briefly, cryo-preserved bacterial cultures of clinical strains are streaked for isolation on appropriate agar medium, in this case Mueller Hinton II agar. Following incubation to allow formation of colonies, these plates are sealed with parafilm and stored refrigerated for up to two weeks. For preparation of assay inocula and to ensure low variability, at least 5 colonies are picked from the agar plates with an inoculating loop and aseptically transferred to a culture tube containing 3 mL of Mueller-Hinton Broth (supplemented with divalent cations to required levels based on Manufacturers' specification). The broth culture is grown for 3-5 hours at 37° C. with shaking at 200 rpm. Meanwhile, 2-fold serial dilutions of test compounds are conducted in a 96 well plate with a final volume of 75 μL per well at 2-fold the final desired concentration. After the dilution plates are set up the growing cultures are then diluted in a cuvette containing MH II broth and the optical density is measured at 600 nm. Inocula are diluted such that 75 μL of this culture in Mueller-Hinton Broth results in a starting bacterial concentration of 5×10^5 CFU/mL when added to the dilution plates. The plates are incubated 16-20 hours at 37° C. The MIC is read visually as the lowest concentration well with no bacterial growth.
(§2) Representative results are shown in Tables 3, 4, and 5 where A represents an MIC>32 μg/mL, B represents an MIC between 8 and 32 μg/mL inclusive, C represents an MIC between 1 and 4 μg/mL inclusive, and D represents an MIC of <1 μg/mL. NT=Not Tested.

[2] = tested on: S. aureus ATCC 33591 (methicillin-resistant); assay: broth microdilution MIC assay, S. aureus ATCC 33591; conditions: Staphylococcus aureus
Method in brief: (§3)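 CLSI broth microdilution in cation-supplemented Mueller-Hinton broth, starting inoculum 5×10^5 CFU/mL, 2-fold compound dilutions. Incubation 16-20 h at 37 °C; MIC read visually as the lowest concentration with no growth.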

[3] = tested on: E. coli ATCC 25922 (wild-type/QC strain); assay: broth microdilution MIC assay, E. coli ATCC 25922; conditions: Escherichia coli
Method in brief: as §3

[4] = tested on: P. aeruginosa ATCC 27853 (wild-type/QC strain); assay: broth microdilution MIC assay, P. aeruginosa ATCC 27853; conditions: Pseudomonas aeruginosa
Method in brief: as §3

[5] = tested on: clinical isolate P. aeruginosa PA 8; assay: broth microdilution MIC assay, P. aeruginosa PA 8; conditions: Pseudomonas aeruginosa, P. aeruginosa PA8
Protocol: as §1, §2

S. aureus USA 300 = assay: broth microdilution MIC assay, S. aureus USA 300; conditions: Staphylococcus aureus; Table 4; S. aureus USA300; read-out: S. aureus USA300 MIC
Method in brief: as §3

S. aureus USA600 = assay: broth microdilution MIC assay, S. aureus USA 600; conditions: Staphylococcus aureus; Table 4; S. aureus USA600; read-out: S. aureus USA600 MIC
Method in brief: as §3

[6] = tested on: P. aeruginosa 35151 (hyper-permeable strain); assay: broth microdilution MIC assay, P. aeruginosa 35151; conditions: Pseudomonas aeruginosa, read-out: P. aeruginosa 35151 MIC
Method in brief: as §3

[7] = tested on: P. aeruginosa ΔmexAB-OprM (an efflux pump knockout); assay: broth microdilution MIC assay, P. aeruginosa ΔmexAB-OprM; conditions: Pseudomonas aeruginosa, 20 h, read-out: P. aeruginosa ΔmexAB-OprM MIC
Method in brief: as §3

[8] = tested on: P. aeruginosa PA 3 (a clinical isolate of reduced carbapenem susceptibility); assay: broth microdilution MIC assay, P. aeruginosa PA 3; conditions: Pseudomonas aeruginosa; Table 5; P. aeruginosa PA3
Protocol: as §1, §2

[9] = Table 3, S. aureus 29213 (MSSA), read-out: S. aureus 29213 (MSSA) MIC
[10] = ATCC 33591 / MRSA, Table 3, S. aureus 33591 (MRSA), read-out: S. aureus 33591 (MRSA) MIC
[11] = ATCC25922, Table 3, E. coli 25922, read-out: E. coli 25922 MIC
[12] = ATCC27853, Table 3, P. aeruginosa 27853, read-out: P. aeruginosa 27853 MIC

Row | Compound | MIC [1, 9] | MIC [2, 10] | MIC [3, 11] | MIC [4, 12] | MIC ([5]; Table 3) | further results
1 | C[C@@H](O)[C@H]1C(=O)N2C(C(=O)O)=C(S[C@H]3CCN(C4CCNCC4)C3)[C@H](C)[C@H]12 [Example 2, (4R,5S,6S)-6-((R)-1-hydroxyethyl)-4-methyl-7-oxo-3-(((S)-1-(piperidin-4-yl)pyrrolidin-3-yl)thio)-1-azabicyclo[3.2.0]hept-2-ene-2-carboxylic acid] | < 1 µg/mL | 8 to 32 µg/mL | < 1 µg/mL | 1 to 4 µg/mL | > 32 µg/mL | –
2 | C[C@@H](O)[C@H]1C(=O)N2C(C(=O)O)=C(S[C@@H]3CCN(C4CCCNC4)C3)[C@H](C)[C@H]12 (stereo partly drawn) [Example 4, (4R,5S,6S)-6-((R)-1-hydroxyethyl)-4-methyl-7-oxo-3-(((3R)-1-(piperidin-3-yl)pyrrolidin-3-yl)thio)-1-azabicyclo[3.2.0]hept-2-ene-2-carboxylic acid] | < 1 µg/mL | 8 to 32 µg/mL | < 1 µg/mL | 1 to 4 µg/mL | 8 to 32 µg/mL | –
3 | C[C@@H](O)[C@H]1C(=O)N2C(C(=O)O)=C(S[C@@H]3CCN(C4CCNC4)C3)[C@H](C)[C@H]12 (stereo partly drawn) [Example 6, (4R,5S,6S)-3-(((3R)-[1,3′-bipyrrolidin]-3-yl)thio)-6-((R)-1-hydroxyethyl)-4-methyl-7-oxo-1-azabicyclo[3.2.0]hept-2-ene-2-carboxylic acid] | < 1 µg/mL | 8 to 32 µg/mL | < 1 µg/mL | 1 to 4 µg/mL | 1 to 4 µg/mL | –
4 | C[C@@H](O)[C@H]1C(=O)N2C(C(=O)O)=C(S[C@@H]3CCN(CC4CCNCC4)C3)[C@H](C)[C@H]12 [Example 7, (4R,5S,6S)-6-((R)-1-hydroxyethyl)-4-methyl-7-oxo-3-(((R)-1-(piperidin-4-ylmethyl)pyrrolidin-3-yl)thio)-1-azabicyclo[3.2.0]hept-2-ene-2-carboxylic acid] | < 1 µg/mL | 1 to 4 µg/mL | < 1 µg/mL | 1 to 4 µg/mL | 1 to 4 µg/mL | –
5 | C[C@@H](O)[C@H]1C(=O)N2C(C(=O)O)=C(S[C@@H]3CCN(C[C@H]4CCCN4)C3)[C@H](C)[C@H]12 [Example 8, (4R,5S,6S)-6-((R)-1-hydroxyethyl)-4-methyl-7-oxo-3-(((R)-1-(((R)-pyrrolidin-2-yl)methyl)pyrrolidin-3-yl)thio)-1-azabicyclo[3.2.0]hept-2-ene-2-carboxylic acid] | < 1 µg/mL | 1 to 4 µg/mL | < 1 µg/mL | 8 to 32 µg/mL | 8 to 32 µg/mL | –
6 | C[C@@H](O)[C@H]1C(=O)N2C(C(=O)O)=C(S[C@@H]3CCN(Cc4ccncc4)C3)[C@H](C)[C@H]12 [Example 9, (4R,5S,6S)-6-((R)-1-hydroxyethyl)-4-methyl-7-oxo-3-(((R)-1-(pyridin-4-ylmethyl)pyrrolidin-3-yl)thio)-1-azabicyclo[3.2.0]hept-2-ene-2-carboxylic acid] | < 1 µg/mL | 8 to 32 µg/mL | < 1 µg/mL | 8 to 32 µg/mL | 8 to 32 µg/mL | –
7 | C[C@@H](O)[C@H]1C(=O)N2C(C(=O)O)=C(S[C@@H]3CCN(CCC4CCNCC4)C3)[C@H](C)[C@H]12 [Example 11, (4R,5S,6S)-6-((R)-1-hydroxyethyl)-4-methyl-7-oxo-3-(((R)-1-(2-(piperidin-4-yl)ethyl)pyrrolidin-3-yl)thio)-1-azabicyclo[3.2.0]hept-2-ene-2-carboxylic acid] | < 1 µg/mL | 1 to 4 µg/mL | < 1 µg/mL | 1 to 4 µg/mL | 1 to 4 µg/mL | –
8 | C[C@@H](O)[C@H]1C(=O)N2C(C(=O)O)=C(S[C@@H]3CCN(CC4(F)CCNCC4)C3)[C@H](C)[C@H]12 [Example 16, (4R,5S,6S)-3-(((R)-1-((4-fluoropiperidin-4-yl)methyl)pyrrolidin-3-yl)thio)-6-((R)-1-hydroxyethyl)-4-methyl-7-oxo-1-azabicyclo[3.2.0]hept-2-ene-2-carboxylic acid] | – | – | – | – | – | MIC ([1]; read-out: S. aureus 29213 (MSSA) MIC (μg/mL)): < 1 µg/mL; MIC ([2]; ATCC 33591 / MRSA, read-out: S. aureus 33591 (MRSA) MIC (μg/mL)): 8 to 32 µg/mL; MIC ([3]; ATCC25922, read-out: E. coli 25922 MIC (μg/mL)): < 1 µg/mL; MIC ([4]; ATCC27853, read-out: P. aeruginosa 27853 MIC (μg/mL)): 8 to 32 µg/mL
9 | CNCc1ccc(CN2CC[C@@H](SC3=C(C(=O)O)N4C(=O)[C@H]([C@@H](C)O)[C@H]4[C@H]3C)C2)cc1 [Example 19, (4R,5S,6S)-6-((R)-1-hydroxyethyl)-4-methyl-3-(((R)-1-(4-((methylamino)methyl)benzyl)pyrrolidin-3-yl)thio)-7-oxo-1-azabicyclo[3.2.0]hept-2-ene-2-carboxylic acid] | 1 to 4 µg/mL | 8 to 32 µg/mL | < 1 µg/mL | 1 to 4 µg/mL | 1 to 4 µg/mL | –
10 | CN[C@H]1CC[C@@H](CN2CC[C@@H](SC3=C(C(=O)O)N4C(=O)[C@H]([C@@H](C)O)[C@H]4[C@H]3C)C2)CC1 [Example 22, (4R,5S,6S)-6-((R)-1-hydroxyethyl)-4-methyl-3-(((R)-1-(((1s,4S)-4-(methylamino)cyclohexyl)methyl)pyrrolidin-3-yl)thio)-7-oxo-1-azabicyclo[3.2.0]hept-2-ene-2-carboxylic acid] | 1 to 4 µg/mL | 8 to 32 µg/mL | < 1 µg/mL | 1 to 4 µg/mL | 1 to 4 µg/mL | –
11 | C[C@@H](O)[C@H]1C(=O)N2C(C(=O)O)=C(S[C@@H]3CCN([C@H]4CC[C@H](N)CC4)C3)[C@H](C)[C@H]12 [Example 24, (4R,5S,6S)-3-(((R)-1-((1s,4S)-4-aminocyclohexyl)pyrrolidin-3-yl)thio)-6-((R)-1-hydroxyethyl)-4-methyl-7-oxo-1-azabicyclo[3.2.0]hept-2-ene-2-carboxylic acid] | 1 to 4 µg/mL | 8 to 32 µg/mL | < 1 µg/mL | 1 to 4 µg/mL | 8 to 32 µg/mL | –
12 | C[C@@H](O)[C@H]1C(=O)N2C(C(=O)O)=C(S[C@@H]3CCCN(CC4CCNCC4)C3)[C@H](C)[C@H]12 [Example 43, (4R,5S,6S)-6-((R)-1-hydroxyethyl)-4-methyl-7-oxo-3-(((R)-1-(piperidin-4-ylmethyl)piperidin-3-yl)thio)-1-azabicyclo[3.2.0]hept-2-ene-2-carboxylic acid] | – | – | – | – | – | MIC ([2]; ATCC33591, Table 4, S. aureus 33591, read-out: S. aureus 33591 MIC): 8 to 32 µg/mL; MIC ([3]; ATCC25922, Table 4, E. coli 25922, read-out: E. coli 25922 MIC): < 1 µg/mL; MIC ([4]; ATCC27853, Table 5, P. aeruginosa 27853, read-out: P. aeruginosa 27853 MIC): 8 to 32 µg/mL; MIC ([5]; Table 5): > 32 µg/mL; MIC (S. aureus USA 300): 1 to 4 µg/mL; MIC (S. aureus USA600): 1 to 4 µg/mL; MIC [6]: < 1 µg/mL; MIC [7]: 8 to 32 µg/mL; MIC [8]: > 32 µg/mL
